Source: patent US7794712B2, “Production of mutant strain of Aspergillus fumigatus, method of assay for inhibiting siderophore biosynthesis and diagnostic method for detecting likely Aspergillus fumigatus infection” (priority 2004, dated 2010)
Where “and” joins values, the source holds several entries; their conditions need not be identical. Identical values can stand only once.

What was measured:
A. fumigatus 13073 [1] = test: Siderophore secretion inhibitor assay (A440 after FeCl3 addition); assay type: cell-based, Aspergillus fumigatus; settings: for A440 (ferrated siderophores): 3 days; for Siderophore production as measured by A440: Neilands' medium without citrate, 48 hours
Text: In this example 96-well sterile polystyrene filter plates as described above with white Duropore membranes at the base of the plate (Millipore) were used. The plates include a thick plastic layer under the wells, which has a one-way valve function that directs fluid into a receiving 96-well plate when the filter plate is subjected to a vacuum manifold or a centrifugal force. This layer can be peeled off if the membranes are to be sampled (punched) later.
Cultures were set up in the filter plates, with controls and inhibitors to be tested. After inclubation, culture fluid was pulled into a 96-well receiver plate, using the Beckman centrifuge and a JS 5.3 rotor designed to take 96-well plates. FeCl3 was added to the receiver plates, and A430 (general siderophores) or A440 (max for TAF) was read. Growth was scored in the plate by reading A600.
To test this method, different antibiotics were used to show inhibition of siderophore production by A. fumigatus 13073, as no inhibitors for the SidA gene product are currently known. Suitable ranges of concentrations of amphotericin B (fungizone), hygromycin, and nystatin were calculated based on the literature. Spores were harvested from A. fumigatus 13073 into PBS Tween, then washed once with PBS and counted. They were then diluted into Neilands' medium (without citrate) to give solutions of 2×10^5 and 2×10^6/ml. 100 μl of 2× spores and 100 μl of 2× antibiotics to yield a volume of 200 μl of Neilands' medium in each well, with the desired final concentrations of spores, 10^5 or 10^6/ml.
Antibiotics were prepared as follows. Amphotericin B came as a liquid solution, 250 µg/ml. […] Therefore 0, 0.125, 0.25, 0.5, 1 and […] final concentration was used. Nystatin was stored it in ˜1 mg dry aliquots at −20 C, and was prepared at a concentration of 2 mg/ml in DMSO for dilution into Neilands' media. According to reported information, nystatin should be effective at 1.5 to 6.5 µg/ml; therefore, 0, 0.5, 1, 5, 10 and 50 µg/ml were used as the final concentrations. Hygromycin gold stock was in solution at 100 mg/ml, and 0, 25, 50, 100, 150 and 200 µg/ml were used as the final concentrations in Neilands' medium. Plates were incubated for 3 days at 37° C. with shaking.
To test for siderophores, 20 μL of a solution of 2 mM FeCl3 in 10 mM HCl was added to each well in the receiver plates and the A440 was recorded on a plate reader. […] An increase in A440 indicates a more intense orange-red colour that develops in the presence of ferrated siderophores. […] Because 3-day incubation produces conidia, shorter incubation periods may be preferable.
(§1) Three identical plates were set up: one filter plate and two sterile clear 96-well plates. The clear plates were used to score growth, and the filter plate was used to detect siderophores. Columns 1-6 contained Neilands' medium without citrate and amphotericin 0-2 at g/ml. Columns 7-12 contained Neilands' medium with citrate and amphotericin at […]. The rows were set up with A. fumigatus as described above, but two sets of each were set up to be in the two plates. The spores from the previous experiment were stored at −20° C. in PBS, in siliconized tubes, at 2×10^8 conidia/ml, to facilitate these experiments. Plates were incubated for 48 hours at 37° C. without shaking.
(§2) The filter plate was centrifuged at 1000×g for 10 minutes and the liquids caught in a clear non-sterile plate, to which FeCl3 was added. The plate was allowed to sit and develop orange colour, and was then read at 440 nm. The clear plates (one without Fe and one with Fe added to growth medium from the beginning) were read at 600 nm (A600). In the result, iron enhanced conidiation. Some wells of the filter plate were lightly conidiated and would not drain. These were hand pipetted.

A. fumigatus 13073 [2] = test: Growth scored by A600 in 96-well plates with or without iron; assay type: cell-based, Aspergillus fumigatus; settings: 48 hours
Protocol: Siderophore production and growth was scored by using one antibiotic (amphotericin B) with two types of media (Neilands' with and without citrate), using the same spore concentrations as given above, but a shorter incubation time. Generally, this portion of the assay would be carried out when there was a potential inhibitor which scored positively in the first round of screening. Growth is scored with and without iron in the media.
as §1, §2

invasive aspergillosis = settings: with prophylaxis and treatment; cited from earlier work

With `C[C@@H]1[C@H](O)[C@@H](C)/C=C/C=C/C=C/C=C/C=C/C=C/C=C/[C@H](O[C@@H]2O[C@H](C)[C@@H](O)[C@H](N)[C@@H]2O)C[C@@H]2O[C@](O)(C[C@@H](O)C[C@@H](O)[C@H](O)CC[C@@H](O)C[C@@H](O)CC(=O)O[C@H]1C)C[C@H](O)[C@H]2C(=O)O` [amphotericin B] the “A440 (ferrated siderophores)” value (A. fumigatus 13073 [1]; amphotericin B 0.13 μg/ml, 1.00E+05 spores/ml) was 0.178 and 0.156 and 0.145, the “A440 (ferrated siderophores)” value (A. fumigatus 13073 [1]; amphotericin B 0.13 μg/ml, 1.00E+06 spores/ml) was 0.211 and 0.200 and the “Siderophore production as measured by A440” value (shortened to “Siderophore production”) (A. fumigatus 13073 [1]; amphotericin B 0.13 μg/ml, 100000 spores/ml) was 0.047 and 0.042. The “A440 (ferrated siderophores)” value (A. fumigatus 13073 [1]; amphotericin B 0.25 μg/ml, 1.00E+05 spores/ml) was 0.038 and 0.039 and 0.040, the “A440 (ferrated siderophores)” value (A. fumigatus 13073 [1]; amphotericin B 0.25 μg/ml, 1.00E+06 spores/ml) was 0.085 and 0.168 and 0.130 and the “Siderophore production” value (A. fumigatus 13073 [1]; amphotericin B 0.25 μg/ml, 100000 spores/ml) was 0.044 and 0.043. The “Siderophore production” value (A. fumigatus 13073 [1]; amphotericin B 0.25 μg/ml, 1000000 spores/ml) was 0.047 and 0.046 and 0.048, the “A440 (ferrated siderophores)” value (A. fumigatus 13073 [1]; amphotericin B 0.50 μg/ml, 1.00E+05 spores/ml) was 0.042 and 0.040 and 0.039 and the “A440 (ferrated siderophores)” value (A. fumigatus 13073 [1]; amphotericin B 0.50 μg/ml, 1.00E+06 spores/ml) was 0.038 and 0.042 and 0.035. For the same compound, the “Siderophore production” value (A. fumigatus 13073 [1]; amphotericin B 0.50 μg/ml, 100000 spores/ml) was 0.042 and 0.043 and 0.046, the “Siderophore production” value (A. fumigatus 13073 [1]; amphotericin B 0.50 μg/ml, 1000000 spores/ml) was 0.043 and 0.042 and the “A440 (ferrated siderophores)” value (A. fumigatus 13073 [1]; amphotericin B 1.00 μg/ml, 1.00E+05 spores/ml) was 0.032 and 0.039 and 0.036. The “Siderophore production” value (A. fumigatus 13073 [1]; amphotericin B 1 μg/ml, 100000 spores/ml) was 0.042 and 0.041 and 0.045, the “Siderophore production” value (A. fumigatus 13073 [1]; amphotericin B 1 μg/ml, 1000000 spores/ml) was 0.05 and 0.047 and the “A440 (ferrated siderophores)” value (A. fumigatus 13073 [1]; amphotericin B 2.00 μg/ml, 1.00E+05 spores/ml) was 0.041 and 0.034. For the same compound, the “A440 (ferrated siderophores)” value (A. fumigatus 13073 [1]; amphotericin B 2.00 μg/ml, 1.00E+06 spores/ml) was 0.036 and 0.034, the “Siderophore production” value (A. fumigatus 13073 [1]; amphotericin B 2 μg/ml, 100000 spores/ml) was 0.045 and the “Siderophore production” value (A. fumigatus 13073 [1]; amphotericin B 2 μg/ml, 1000000 spores/ml) was 0.044 and 0.043 and 0.045. For the same compound, the “Effect of iron on growth inhibition” value (A. fumigatus 13073 [2]; Neilands' medium with vs without Fe) was “addition of iron did not change the pattern of growth inhibition”, the “Growth as measured by A600” value (A. fumigatus 13073 [2]; amphotericin B 0.13 μg/ml, 1000000 spores/ml, Neilands' medium without citrate or Fe) was 0.137 and 0.113 and 0.168 and the “Growth as measured by A600” value (A. fumigatus 13073 [2]; amphotericin B 0.13 μg/ml, 1000000 spores/ml, Neilands' medium without citrate with Fe) was 0.139 and 0.113 and 0.169. The “Growth as measured by A600” value (A. fumigatus 13073 [2]; amphotericin B 0.25 μg/ml, 100000 spores/ml, Neilands' medium without citrate or Fe) was 0.068 and 0.083 and 0.076, the “Growth as measured by A600” value (A. fumigatus 13073 [2]; amphotericin B 0.25 μg/ml, 100000 spores/ml, Neilands' medium without citrate with Fe) was 0.067 and 0.091 and 0.076 and the “Growth as measured by A600” value (A. fumigatus 13073 [2]; amphotericin B 0.25 μg/ml, 1000000 spores/ml, Neilands' medium without citrate or Fe) was 0.111 and 0.126 and 0.157. The “Growth as measured by A600” value (A. fumigatus 13073 [2]; amphotericin B 0.25 μg/ml, 1000000 spores/ml, Neilands' medium without citrate with Fe) was 0.11 and 0.126 and 0.157, the “Growth as measured by A600” value (A. fumigatus 13073 [2]; amphotericin B 0.50 μg/ml, 100000 spores/ml, Neilands' medium without citrate or Fe) was 0.035 and the “Growth as measured by A600” value (A. fumigatus 13073 [2]; amphotericin B 0.5 μg/ml, 100000 spores/ml, Neilands' medium without citrate with Fe) was 0.035 and 0.034. For the same compound, the “Growth as measured by A600” value (A. fumigatus 13073 [2]; amphotericin B 0.50 μg/ml, 1000000 spores/ml, Neilands' medium without citrate or Fe) was 0.038 and 0.039 and 0.037, the “Growth as measured by A600” value (A. fumigatus 13073 [2]; amphotericin B 0.5 μg/ml, 1000000 spores/ml, Neilands' medium without citrate with Fe) was 0.038 and 0.039 and the “Growth as measured by A600” value (A. fumigatus 13073 [2]; amphotericin B 1 μg/ml, 100000 spores/ml, Neilands' medium without citrate or Fe) was 0.035 and 0.036. The “Growth as measured by A600” value (A. fumigatus 13073 [2]; amphotericin B 1 μg/ml, 100000 spores/ml, Neilands' medium without citrate with Fe) was 0.035, the “Growth as measured by A600” value (A. fumigatus 13073 [2]; amphotericin B 1 μg/ml, 1000000 spores/ml, Neilands' medium without citrate or Fe) was 0.039 and 0.038 and the “Growth as measured by A600” value (A. fumigatus 13073 [2]; amphotericin B 1 μg/ml, 1000000 spores/ml, Neilands' medium without citrate with Fe) was 0.039. The “Growth as measured by A600” value (A. fumigatus 13073 [2]; amphotericin B 2 μg/ml, 100000 spores/ml, Neilands' medium without citrate or Fe) was 0.035 and 0.036, the “Growth as measured by A600” value (A. fumigatus 13073 [2]; amphotericin B 2 μg/ml, 100000 spores/ml, Neilands' medium without citrate with Fe) was 0.035 and the “Growth as measured by A600” value (A. fumigatus 13073 [2]; amphotericin B 2 μg/ml, 1000000 spores/ml, Neilands' medium without citrate or Fe) was 0.038 and 0.039. For the same compound, the “Growth as measured by A600” value (A. fumigatus 13073 [2]; amphotericin B 2 μg/ml, 1000000 spores/ml, Neilands' medium without citrate with Fe) was 0.038 and 0.039, the “Mortality rate if the disease spreads to the central nervous system” value (invasive aspergillosis) was about 100% and the “Mortality rate, pulmonary aspergillosis” value (invasive aspergillosis) was 65%.
